Test [1] has as its system L1210. Description: Inhibition of cellular growth against mouse (L1210) deficient in thymidine kinase.
Test [2] relates to GC3/MTK-. Description: Inhibition of cellular growth against human adenocarcinoma (GC3/M TK-) deficient in thymidine kinase.
Test [3] deals with CCRF-CEM. Description: Inhibition of cellular growth against human (CCRF-CEM) leukemias (ATCC) deficient in thymidine kinase.
Test [4] deals with L1210. Description: Inhibition of cellular growth against mouse (L1210) deficient in thymidine kinase.
Test [5] concerns CCRF-CEM. Description: Inhibition of cellular growth against human (CCRF-CEM) leukemias (ATCC) deficient in thymidine kinase.
Test [6] deals with GC3/MTK-. Description: Inhibition of cellular growth against human adenocarcinoma (GC3/M TK-) deficient in thymidine kinase.
The target in test [7] is Thymidylate synthase (Escherichia coli, UniProt C3SWJ7).
Sequence of Thymidylate synthase (Escherichia coli, UniProt C3SWJ7) (C3SWJ7 whole entry): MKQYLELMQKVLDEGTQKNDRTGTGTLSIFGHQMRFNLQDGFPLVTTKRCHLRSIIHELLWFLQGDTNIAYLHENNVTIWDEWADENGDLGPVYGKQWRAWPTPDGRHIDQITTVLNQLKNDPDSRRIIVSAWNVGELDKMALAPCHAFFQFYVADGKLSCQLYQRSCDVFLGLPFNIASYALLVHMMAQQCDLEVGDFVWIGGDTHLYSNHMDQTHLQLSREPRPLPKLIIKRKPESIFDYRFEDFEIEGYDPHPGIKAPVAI
Description: Inhibition of Thymidylate synthase of Escherichia coli (Ki)
The target of test [8] is Thymidylate synthase (Homo sapiens, UniProt P04818).
Sequence of Thymidylate synthase (Homo sapiens, UniProt P04818) (P04818 whole entry): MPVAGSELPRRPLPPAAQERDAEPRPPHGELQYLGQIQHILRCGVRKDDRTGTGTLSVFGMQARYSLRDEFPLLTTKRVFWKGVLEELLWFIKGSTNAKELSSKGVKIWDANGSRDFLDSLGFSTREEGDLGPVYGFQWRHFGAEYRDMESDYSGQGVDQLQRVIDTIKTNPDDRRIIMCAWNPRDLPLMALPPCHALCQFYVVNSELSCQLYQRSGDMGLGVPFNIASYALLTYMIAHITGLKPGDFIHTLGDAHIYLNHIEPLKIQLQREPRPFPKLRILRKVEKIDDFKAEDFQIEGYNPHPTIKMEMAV
Description: Inhibition of human Thymidylate synthase (Ki)
For test [9], the target named is Thymidylate synthase (Escherichia coli) (UniProt C3SWJ7).
Sequence of Thymidylate synthase (Escherichia coli) (C3SWJ7 1-264): as the sequence (C3SWJ7 whole entry) above
Description: Inhibition of Thymidylate synthase of Escherichia coli (Kii)

Bounds are passed on as bounds.

As a reminder, the IC50 is the concentration that gives 50% inhibition. Low values mean higher potency, high ones lower potency. As to `C#CCN(Cc1ccc2nc(C)nc(O)c2c1)c1ccc(S(=O)(=O)c2ccccc2)cc1`, the IC50 in test [1] is 1 µM; in [2], 1.1 µM; in test [3], 1.6 µM.
For `CN(Cc1ccc(S(=O)(=O)c2ccccc2)cc1)c1ccc2c3c(cccc13)C(N)=N2`, the IC50 in [1] is 0.38 µM; in test [2], 4.6 µM; in test [3] it was 1.6 µM.
The like results for `C#CCN(Cc1ccc2nc(C)nc(O)c2c1)c1ccc(S(=O)(=O)n2ccc3ccccc32)cc1` were, in that order, 0.3 µM, 1.5 µM and 1.3 µM.
Consider `C#CCN(Cc1ccc2nc(C)nc(O)c2c1)c1ccccc1`, for which the IC50 in [2], in test [4] and in test [5] was greater than 10.7 µM each time.
In turn, `CCN(Cc1ccc(S(=O)(=O)N2CCNCC2)cc1)c1ccc2c3c(cccc13)C(=O)N2` displayed an IC50 in test [1] of 6 µM.
What is called Ki is the dissociation constant of the complex between target and ligand, obtained from inhibition or displacement. Read a high Ki as a looser hold on the target. As for `C#CCN(Cc1ccc2nc(C)nc(O)c2c1)c1cccc(C(F)(F)F)c1`, the IC50 in [6], in [4] and in test [5] was greater than 4.3 µM in each case. The compound also yielded a Ki in test [7] of 0.45 µM.
Consider `C#CCN(Cc1ccc2[nH]c(N)nc(=O)c2c1)c1ccc(C(=O)NC(CCC(=O)O)C(=O)O)cc1` (centres undefined), for which the figures for the IC50 in test [1], in test [2] and in [3] were 3.5 µM, 1.4 µM and 0.75 µM, respectively.
On to `Nc1nc2cc3c(cc2[nH]1)N(Cc1ccc(S(=O)(=O)N2CCNCC2)cc1)CCC3`, for which the figures for the half-inhibitory concentration (IC50) in test [6], in [1] and in test [3] were greater than 50 µM, 2.05 µM and 2.2 µM, respectively.
`CN(Cc1ccc(S(=O)(=O)c2ccccc2)cc1)c1ccc2c3c(cccc13)C(=O)N2` gave an IC50 in test [6] greater than 5 µM.
Consider `C#CCN(Cc1ccc2nc(C)nc(O)c2c1)c1ccc(S(=O)(=O)c2ccccc2)c(C(F)(F)F)c1`, for which the IC50 was 2 µM in test [1], 7.5 µM in test [2] and 3.5 µM in test [3].
On to `Nc1nc2cc3c(cc2[nH]1)N(Cc1ccc(S(=O)(=O)c2ccccc2)cc1)CCC3`, for which the IC50 was greater than 5 µM in test [6], 2 µM in [1] and 3.9 µM in [3]. In addition, in [7], the Ki came to 0.043 µM.
Turning to `C#CCN(Cc1ccc2nc(C)nc(O)c2c1)c1ccc(C(=O)NC(CCC(=O)O)C(=O)O)cc1` (centres undefined), the figures for the Ki in [8] and in test [7] were 0.0085 µM and 0.0048 µM, respectively. Further, the figures for the IC50 in test [1], in [2] and in test [3] were 0.059 µM, 0.049 µM and 0.043 µM, respectively. The same compound gave a Kii in test [9] of 0.013 µM.
For `O=S(=O)(c1ccc(CN2CCCc3cc4[nH]cnc4cc32)cc1)N1CCNCC1`, the IC50 in [1] came out at 20 µM; in test [2] it was 43 µM; in [3], 11 µM. The compound also displayed a Ki in test [7] of 4.9 µM.
On to `CN(Cc1ccc(S(=O)(=O)N2CCNCC2)cc1)c1ccc2c3c(cccc13)C(=O)N2`, for which the IC50 was 2.3 µM in [1], 25 µM in test [2] and 8.3 µM in test [3].

(Values after ChEMBL document CHEMBL1125269, “Design of enzyme inhibitors using iterative protein crystallographic analysis” (J Med Chem, 1991).)
